Data taken from PubChem BioAssay AID248 (DTP/NCI, 2004).
“And” between values parts separate entries of the source, which are not always exact repeats. Equal entries are not always repeated. Toxic doses and inconclusive results are not listed. Rule as the data show it: active = T/C of 150% or more; inactive = T/C below 125%.

Tested on: L1210 leukemia ip in BDF1 mice, survival T/C
Test: NCI In Vivo Anticancer Drug Screen. Data for tumor model L1210 Leukemia (intraperitoneal) in B6D2F1 (BDF1) mice
Details: endpoint: mean survival time, higher = longer survival
How it was run: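 Survival endpoint. Drug-treated group vs vehicle group, expressed as T divided by C. Tumor passaged by transplantation.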

[1] = dose: 100.0 mg/kg/injection, schedule: Q01DX009 (ip), vehicle: Klucel (hydroxypropylcellulose) (HPC)
[2] = dose: 200.0 mg/kg/injection, schedule: Q01DX009 (ip), vehicle: Klucel (hydroxypropylcellulose) (HPC)
[3] = dose: 100.0 mg/kg/injection, schedule: Q01DX001 (ip), vehicle: saline
[4] = dose: 200.0 mg/kg/injection, schedule: Q01DX001 (ip), vehicle: saline
[5] = dose: 400.0 mg/kg/injection, schedule: Q01DX001 (ip), vehicle: saline
[6] = dose: 100.0 mg/kg/injection, schedule: Q04DX003 (ip), vehicle: Klucel (hydroxypropylcellulose) (HPC)
[7] = dose: 100.0 mg/kg/injection, schedule: Q01DX009 (ip), vehicle: saline with Tween-80
[8] = dose: 100.0 mg/kg/injection, schedule: Q04DX003 (ip), vehicle: saline
[9] = dose: 200.0 mg/kg/injection, schedule: Q01DX009 (ip), vehicle: saline with Tween-80
[10] = dose: 200.0 mg/kg/injection, schedule: Q04DX003 (ip), vehicle: saline
[11] = dose: 100.0 mg/kg/injection, schedule: Q04DX002 (ip), vehicle: Klucel (hydroxypropylcellulose) (HPC)
[12] = dose: 200.0 mg/kg/injection, schedule: Q04DX002 (ip), vehicle: Klucel (hydroxypropylcellulose) (HPC)
[13] = dose: 400.0 mg/kg/injection, schedule: Q04DX002 (ip), vehicle: Klucel (hydroxypropylcellulose) (HPC)
[14] = dose: 100.0 mg/kg/injection, schedule: Q01DX009 (ip), vehicle: saline

Measured: T/C

c1ccc2c(OCC3=NCCN3)cccc2c1
inactive: dose: 20.0 mg/kg/injection, schedule: Q01DX001 (ip), vehicle: Klucel (hydroxypropylcellulose) (HPC) 104 % of control | dose: 25.0 mg/kg/injection, schedule: Q01DX009 (ip), vehicle: Klucel (hydroxypropylcellulose) (HPC) 105 % of control | dose: 40.0 mg/kg/injection, schedule: Q01DX001 (ip), vehicle: Klucel (hydroxypropylcellulose) (HPC) 104 % of control | dose: 50.0 mg/kg/injection, schedule: Q01DX009 (ip), vehicle: Klucel (hydroxypropylcellulose) (HPC) 106 % of control | dose: 80.0 mg/kg/injection, schedule: Q01DX001 (ip), vehicle: Klucel (hydroxypropylcellulose) (HPC) 102 % of control | dose: 100.0 mg/kg/injection, schedule: Q01DX001 (ip), vehicle: Klucel (hydroxypropylcellulose) (HPC) 109 % of control

O=C(O)CCNC(=O)CNC(=O)OCc1ccccc1
inactive: [1] 98 % of control | [2] 100 % of control | dose: 300.0 mg/kg/injection, schedule: Q01DX009 (ip), vehicle: Klucel (hydroxypropylcellulose) (HPC) 98 % of control

Nc1cc2c(c(Cl)c1Br)-c1ccccc1C2=O
inactive: [3] 96 % of control | [4] 90 % of control | [5] 94 % of control

Cc1cc(C)c(-n2c(-c3ccc(Cl)cc3)nnc2-c2ccc(Br)cc2)c(C)c1
inactive: [6] 101 % of control | dose: 200.0 mg/kg/injection, schedule: Q04DX003 (ip), vehicle: Klucel (hydroxypropylcellulose) (HPC) 90 % of control | dose: 400.0 mg/kg/injection, schedule: Q04DX003 (ip), vehicle: Klucel (hydroxypropylcellulose) (HPC) 95 % of control

CCCCCC(C)(O)CC (configuration not stated)
inactive: [3] 93 % of control | [4] 102 % of control | [5] 96 % of control

CCCC(OP(=S)(OCC(Cl)CC)OCC(Cl)CC)P(=O)(OCC(Cl)CC)OCC(Cl)CC (configuration not stated)
inactive: dose: 100.0 mg/kg/injection, schedule: Q04DX002 (ip), vehicle: saline 106 % of control | dose: 200.0 mg/kg/injection, schedule: Q04DX002 (ip), vehicle: saline 106 % of control | dose: 400.0 mg/kg/injection, schedule: Q04DX002 (ip), vehicle: saline 106 % of control

CCCCCCCCCCCCCCCCNC(=S)NC1CCCCC1
inactive: dose: 30.0 mg/kg/injection, schedule: Q01DX015 (ip), vehicle: carboxymethylcellulose (CMC) 104 % of control | dose: 60.0 mg/kg/injection, schedule: Q01DX015 (ip), vehicle: carboxymethylcellulose (CMC) 98 % of control | dose: 100.0 mg/kg/injection, schedule: Q01DX001 (ip), vehicle: acetone 100 % of control | [7] 102 % of control | [8] 101 % of control | dose: 120.0 mg/kg/injection, schedule: Q01DX015 (ip), vehicle: carboxymethylcellulose (CMC) 94 % of control | dose: 200.0 mg/kg/injection, schedule: Q01DX001 (ip), vehicle: acetone 88 % of control | [9] 96 % of control | [10] 97 % of control | dose: 240.0 mg/kg/injection, schedule: Q01DX015 (ip), vehicle: carboxymethylcellulose (CMC) 94 % of control and 102 % of control | dose: 400.0 mg/kg/injection, schedule: Q01DX001 (ip), vehicle: acetone 91 % of control | dose: 400.0 mg/kg/injection, schedule: Q04DX003 (ip), vehicle: saline 101 % of control | dose: 480.0 mg/kg/injection, schedule: Q01DX015 (ip), vehicle: carboxymethylcellulose (CMC) 101 % of control

C/C(=N/NC(N)=S)c1ccc(Cl)cc1
inactive: dose: 5.0 mg/kg/injection, schedule: Q01DX001 (ip), vehicle: other 105 % of control | dose: 10.0 mg/kg/injection, schedule: Q01DX001 (ip), vehicle: other 111 % of control

O=C(C/C(=N/O)c1ccccc1)c1ccccc1
inactive: dose: 50.0 mg/kg/injection, schedule: Q01DX001 (ip), vehicle: saline 98 % of control | [3] 102 % of control | [4] 96 % of control | [5] 90 % of control

CC(C)(C)c1ccc(Oc2ccc([N+](=O)[O-])cc2[N+](=O)[O-])c(Br)c1
inactive: [1] 96 % of control | [11] 104 % of control | [2] 96 % of control | [12] 108 % of control | dose: 400.0 mg/kg/injection, schedule: Q01DX009 (ip), vehicle: Klucel (hydroxypropylcellulose) (HPC) 96 % of control | [13] 111 % of control

OCC1OC(n2ccc3ccc(F)cc32)C(O)C1O (configuration not stated)
inactive: dose: 60.0 mg/kg/injection, schedule: Q01DX001 (ip), vehicle: saline 97 % of control | dose: 120.0 mg/kg/injection, schedule: Q01DX001 (ip), vehicle: saline 108 % of control

Cc1cc(N(CCOS(C)(=O)=O)CCOS(C)(=O)=O)ccc1C=Nc1cccc(Br)c1
inactive: dose: 20.0 mg/kg/injection, schedule: Q04DX003 (ip), vehicle: Klucel (hydroxypropylcellulose) (HPC) 110 % of control | dose: 40.0 mg/kg/injection, schedule: Q04DX003 (ip), vehicle: Klucel (hydroxypropylcellulose) (HPC) 121 % of control | dose: 80.0 mg/kg/injection, schedule: Q04DX003 (ip), vehicle: Klucel (hydroxypropylcellulose) (HPC) 98 % of control | [6] 120 % of control

CCCCCCCCCCCCS
inactive: dose: 100.0 mg/kg/injection, schedule: Q01DX001 (ip), vehicle: carboxymethylcellulose (CMC) 103 % of control | dose: 200.0 mg/kg/injection, schedule: Q01DX001 (ip), vehicle: carboxymethylcellulose (CMC) 105 % of control | dose: 400.0 mg/kg/injection, schedule: Q01DX001 (ip), vehicle: carboxymethylcellulose (CMC) 103 % of control

O=C1OC(c2cccc(Cl)c2)=N/C1=C\c1ccccc1
inactive: [11] 98 % of control | [13] 104 % of control

CSc1ccc(-c2nc3ncnc(N)c3[nH]2)cc1
inactive: dose: 25.0 mg/kg/injection, schedule: Q01DX001 (ip), vehicle: gum acacia 95 % of control | dose: 50.0 mg/kg/injection, schedule: Q01DX001 (ip), vehicle: gum acacia 93 % of control

c1ccc(N/N=C(\C(=N\Nc2ccccc2)c2ccccc2)c2ccccc2)cc1
inactive: dose: 200.0 mg/kg/injection, schedule: Q01DX001 (ip), vehicle: Klucel (hydroxypropylcellulose) (HPC) 87 % of control | dose: 400.0 mg/kg/injection, schedule: Q01DX001 (ip), vehicle: Klucel (hydroxypropylcellulose) (HPC) 86 % of control

O=C([O][Sb]([O]C(=O)C(F)(F)F)([c]1ccccc1)([c]1ccccc1)[c]1ccccc1)C(F)(F)F
inactive: dose: 100.0 mg/kg/injection, schedule: Q01DX001 (ip), vehicle: saline with Tween-80 99 % of control | dose: 200.0 mg/kg/injection, schedule: Q01DX001 (ip), vehicle: saline with Tween-80 92 % of control

CC(Br)C(=O)OCc1ccccc1 (configuration not stated)
inactive: [14] 91 % of control | dose: 200.0 mg/kg/injection, schedule: Q01DX009 (ip), vehicle: saline 91 % of control | dose: 400.0 mg/kg/injection, schedule: Q01DX009 (ip), vehicle: saline 93 % of control

CC(C)=CCCC1(C)C=Cc2c(c(C)cc3c4ccccc4n(C)c23)O1 (configuration not stated)
inactive: dose: 25.0 mg/kg/injection, schedule: Q04DX002 (ip), vehicle: DMSO 96 % of control | dose: 50.0 mg/kg/injection, schedule: Q04DX002 (ip), vehicle: DMSO 89 % of control | dose: 100.0 mg/kg/injection, schedule: Q04DX002 (ip), vehicle: DMSO 99 % of control

CC1CNC(=S)N1 (configuration not stated)
inactive: [11] 106 % of control | [12] 103 % of control | [13] 106 % of control

Cn1c(Cl)c(/C=N/NC(N)=S)c2ccccc21
inactive: dose: 50.0 mg/kg/injection, schedule: Q04DX002 (ip), vehicle: Klucel (hydroxypropylcellulose) (HPC) 91 % of control | [11] 91 % of control | [12] 87 % of control

CN1CCC=C(C(=O)N2c3ccccc3CCc3ccccc32)C1
inactive: dose: 50.0 mg/kg/injection, schedule: Q01DX009 (ip), vehicle: saline 107 % of control | [14] 95 % of control | [8] 103 % of control | [10] 92 % of control

CCOC(=O)CNC(=O)OCCN1CCNC1=S
inactive: [7] 98 % of control | [9] 100 % of control | dose: 400.0 mg/kg/injection, schedule: Q01DX009 (ip), vehicle: saline with Tween-80 101 % of control
